Data taken from patent US9133163B2, “Dihydropyrazole GPR40 modulators” (Bristol-Myers Squibb Company, priority 2012, dated 2015).

molecular target: hGPR40 (Homo sapiens, UniProt O14842); experiment: FDSS-based intracellular calcium assay; type: cell-based; parameters: 3xFLAG; expressed in transfected cells; conditions: intracellular Ca2+ response, cells expressing GPR40
Description: FDSS-Based Intracellular Calcium Assay
Compounds are dissolved in DMSO and diluted to desired concentrations with assay buffer and added to the cells as 3× solution (20 μL per well). Run fluorescence/luminescence reader FDSS (Hamamatsu) to read intracellular Ca^2+ response.

hGPR40, sequence (O14842 whole entry): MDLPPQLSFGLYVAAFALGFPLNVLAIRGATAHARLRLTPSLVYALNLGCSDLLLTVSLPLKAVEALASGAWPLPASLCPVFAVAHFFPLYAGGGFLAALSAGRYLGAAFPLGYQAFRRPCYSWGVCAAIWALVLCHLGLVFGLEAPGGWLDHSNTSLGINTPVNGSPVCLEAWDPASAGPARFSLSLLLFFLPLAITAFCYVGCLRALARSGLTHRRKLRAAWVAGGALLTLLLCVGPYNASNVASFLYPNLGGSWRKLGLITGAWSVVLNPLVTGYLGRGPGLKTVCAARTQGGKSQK

| SMILES | EC50 |
| --- | --- |
| COc1cc(C)c(N2CCC(Oc3ccc(N4N=C(C(F)(F)F)[C@@H](C)[C@@H]4CC(=O)O)cc3)CC2)c(C)c1 [Example 51, 2-((4S,5S)-1-(4-((1-(4-Methoxy-2,6-dimethylphenyl)piperidin-4-yl)oxy)phenyl)-4-methyl-3-(trifluoromethyl)-4,5-dihydro-1H-pyrazol-5-yl)acetic acid] | 3060 nM |
| C[C@@H]1C(C(F)(F)F)=NN(c2ccc(OC3CCN(c4ccc(Cl)cc4)CC3)cc2)[C@H]1CC(=O)O [Example 56, 2-((4S,5S)-1-(4-((1-(4-Chlorophenyl)piperidin-4-yl)oxy)phenyl)-4-methyl-3-(trifluoromethyl)-4,5-dihydro-1H-pyrazol-5-yl)acetic acid] | 6270 nM |
| C[C@@H]1C(C(F)(F)F)=NN(c2ccc(OC3CCN(c4ccc(F)cc4)CC3)cc2)[C@H]1CC(=O)O [Example 49, 2-((4S,5S)-1-(4-((1-(4-Fluorophenyl)piperidin-4-yl)oxy)phenyl)-4-methyl-3-(trifluoromethyl)-4,5-dihydro-1H-pyrazol-5-yl)acetic acid] | 2650 nM |
| COc1ccccc1N1CCC(Oc2ccc(N3N=C(C(F)(F)F)[C@@H](C)[C@@H]3CC(=O)O)cc2)CC1 [Example 46, 2-((4S,5S)-1-(4-((1-(2-Methoxyphenyl)piperidin-4-yl)oxy)phenyl)-4-methyl-3-(trifluoromethyl)-4,5-dihydro-1H-pyrazol-5-yl)acetic acid] | 1700 nM |
| COc1cc(N2CCC(Oc3ccc(N4N=C(C(F)(F)F)[C@@H](C)[C@@H]4CC(=O)O)cc3)C(F)C2)c(Cl)cn1 (single isomer, unassigned) [Example A1, Isomer 2] | 218 nM |
| CCOc1ccc(F)c(N2CC[C@H](Oc3ccc(N4N=C(C(F)(F)F)[C@@H](C)[C@@H]4CC(=O)O)cc3)[C@@H](C)C2)c1 [Example 30, 2-((4S,5S)-1-(4-(((3S,4S)-1-(5-Ethoxy-2-fluorophenyl)-3-methylpiperidin-4-yl)oxy)phenyl)-4-methyl-3-(trifluoromethyl)-4,5-dihydro-1H-pyrazol-5-yl)acetic acid] | 1200 nM |
| COc1cc(F)c(F)c(N2CCC(Oc3ccc(N4N=C(C(F)(F)F)[C@@H](C)[C@@H]4CC(=O)O)cc3)C(C)C2)c1 (single isomer, unassigned) [Example 8 (Isomer 1)] | 796 nM |
| COc1ccc(F)c(N2CCC(Oc3ccc(N4N=C(C(F)(F)F)[C@@H](C)[C@@H]4CC(=O)O)cc3)C(F)C2)c1 (single isomer, unassigned) [Example 57 (Isomer 3)] | 716 nM |
| CCC1C(C(F)(F)F)=NN(c2ccc(OC3CCN(c4cc(OC)ncc4Cl)CC3C)cc2)C1CC(=O)O (single isomer, unassigned) [Example 86, Isomer 3, 2-(1-(4-((1-(5-Chloro-2-methoxypyridin-4-yl)-3-methylpiperidin-4-yl)oxy)phenyl)-4-ethyl-3-(trifluoromethyl)-4,5-dihydro-1H-pyrazol-5-yl)acetic acid] | 1930 nM |
| C[C@@H]1C(C(F)(F)F)=NN(c2ccc(OC3CCN(c4cccc(F)c4)CC3)cc2)[C@H]1CC(=O)O [Example 48, 2-((4S,5S)-1-(4-((1-(3-Fluorophenyl)piperidin-4-yl)oxy)phenyl)-4-methyl-3-(trifluoromethyl)-4,5-dihydro-1H-pyrazol-5-yl)acetic acid] | 2270 nM |
| CCOc1cc(F)c(F)c(N2CCC(Oc3ccc(N4N=C(C(F)(F)F)[C@@H](C)[C@@H]4CC(=O)O)cc3)C(C)C2)c1 (single isomer, unassigned) [Example 10 (Isomer 1)] | 1200 nM |
| COc1ccnc(N2CCC(Oc3ccc(N4N=C(C(F)(F)F)[C@@H](C)[C@@H]4CC(=O)O)cc3)CC2)c1 [Example 45, 2-((4S,5S)-1-(4-((1-(4-Methoxypyridin-2-yl)piperidin-4-yl)oxy)phenyl)-4-methyl-3-(trifluoromethyl)-4,5-dihydro-1H-pyrazol-5-yl)acetic acid] | 1520 nM |
| COc1ccc(F)c(N2CCC(Oc3ccc(N4N=C(c5ncccn5)C(C)C4CC(=O)O)cc3)CC2)c1 (single isomer, unassigned) [Example 22, Isomer 1, 2-(1-(4-((1-(2-Fluoro-5-methoxyphenyl)piperidin-4-yl)oxy)phenyl)-4-methyl-3-(pyrimidin-2-yl)-4,5-dihydro-1H-pyrazol-5-yl)acetic acid] | 2040 nM |
| COc1ccc(F)c(N2CCC(Oc3ccc(N4N=C(c5ncccn5)C(C)C4CC(=O)O)cc3)CC2)c1 (single isomer, unassigned) [Example 22, Isomer 2, 2-(1-(4-((1-(2-Fluoro-5-methoxyphenyl)piperidin-4-yl)oxy)phenyl)-4-methyl-3-(pyrimidin-2-yl)-4,5-dihydro-1H-pyrazol-5-yl)acetic acid] | 5570 nM |
| C[C@@H]1C(C(F)(F)F)=NN(c2ccc(OC3CCN(c4ccccn4)CC3)cc2)[C@H]1CC(=O)O [Example 74, 2-((4S,5S)-4-Methyl-1-(4-((1-(pyridin-2-yl)piperidin-4-yl)oxy)phenyl)-3-(trifluoromethyl)-4,5-dihydro-1H-pyrazol-5-yl)acetic acid] | 2610 nM |
| COc1ccc(Cl)c(N2CCC(Oc3ccc(N4N=C(C(F)(F)F)[C@@H](C)[C@@H]4CC(=O)O)cc3)CC2)c1 [Example 33, 2-((4S,5S)-1-(4-((1-(2-Chloro-5-methoxyphenyl)piperidin-4-yl)oxy)phenyl)-4-methyl-3-(trifluoromethyl)-4,5-dihydro-1H-pyrazol-5-yl)acetic acid] | 103 nM |
| CCOc1ccc(F)c(N2CCC(Oc3ccc(N4N=C(C(F)(F)F)[C@@H](C)[C@@H]4CC(=O)O)cc3)CC2)c1 [Example 32, 2-((4S,5S)-1-(4-((1-(5-Ethoxy-2-fluorophenyl)piperidin-4-yl)oxy)phenyl)-4-methyl-3-(trifluoromethyl)-4,5-dihydro-1H-pyrazol-5-yl)acetic acid] | 217 nM |
| C[C@@H]1C(C(F)(F)F)=NN(c2ccc(OC3CCN(c4cccc(Cl)c4)CC3)cc2)[C@H]1CC(=O)O [Example 50, 2-((4S,5S)-1-(4-((1-(3-Chlorophenyl)piperidin-4-yl)oxy)phenyl)-4-methyl-3-(trifluoromethyl)-4,5-dihydro-1H-pyrazol-5-yl)acetic acid] | 2840 nM |
| CCOc1ccc(F)c(N2CCC(Oc3ccc(N4N=C(C(F)(F)F)[C@@H](C)[C@@H]4CC(=O)O)cc3)C(CC)C2)c1 (single isomer, unassigned) [Example 25 (Isomer 1)] | 1020 nM |

Next, values leading:

| EC50 | SMILES |
| --- | --- |
| 224 nM | CCOc1cc(N2CC[C@@H](Oc3ccc(N4N=C(C(F)(F)F)[C@@H](C)[C@@H]4CC(=O)O)cc3)[C@H](C)C2)c(Cl)cn1 [Example 83, 2-((4S,5S)-1-(4-(((3R,4R)-1-(5-Chloro-2-ethoxypyridin-4-yl)-3-methylpiperidin-4-yl)oxy)phenyl)-4-methyl-3-(trifluoromethyl)-4,5-dihydro-1H-pyrazol-5-yl)acetic acid] |
| 649 nM | COc1ccc(Cl)c(N2CCC(Oc3ccc(N4N=C(C(F)(F)F)[C@@H](C)[C@@H]4CC(=O)O)cc3)CC2)n1 [Example 76, 2-((4S,5S)-1-(4-((1-(3-Chloro-6-methoxypyridin-2-yl)piperidin-4-yl)oxy)phenyl)-4-methyl-3-(trifluoromethyl)-4,5-dihydro-1H-pyrazol-5-yl)acetic acid] |
| 293 nM | C[C@@H]1C(C(F)(F)F)=NN(c2ccc(OC3CCN(c4ncccc4Cl)CC3)cc2)[C@H]1CC(=O)O [Example 58, 2-((4S,5S)-1-(4-((1-(3-Chloropyridin-2-yl)piperidin-4-yl)oxy)phenyl)-4-methyl-3-(trifluoromethyl)-4,5-dihydro-1H-pyrazol-5-yl)acetic acid] |
| 139 nM | COC(=O)c1ccc(C2=NN(c3ccc(OC4CCN(c5cc(OC)ccc5F)CC4)cc3)[C@@H](CC(=O)O)[C@@H]2C)cc1 [Example 92, 2-((4S,5S)-1-(4-((1-(2-Fluoro-5-methoxyphenyl)piperidin-4-yl)oxy)phenyl)-3-(4-(methoxycarbonyl)phenyl)-4-methyl-4,5-dihydro-1H-pyrazol-5-yl)acetic acid] |
| 364 nM | Cc1ccc(Cl)c(N2CCC(Oc3ccc(N4N=C(C(F)(F)F)[C@@H](C)[C@@H]4CC(=O)O)cc3)CC2)c1 [Example 60, 2-((4S,5S)-1-(4-((1-(2-Chloro-5-methylphenyl)piperidin-4-yl)oxy)phenyl)-4-methyl-3-(trifluoromethyl)-4,5-dihydro-1H-pyrazol-5-yl)acetic acid] |
| 82 nM | CCOc1ccc(F)c(N2CCC(Oc3ccc(N4N=C(C(F)(F)F)[C@@H](C)[C@@H]4CC(=O)O)cc3)C(C(C)C)C2)c1 (single isomer, unassigned) [Example 26 (Isomer 2)] |
| 73 nM | CCC1C(C(F)(F)F)=NN(c2ccc(OC3CCN(c4cc(OC)ncc4Cl)CC3C)cc2)C1CC(=O)O (single isomer, unassigned) [Example 86, Isomer 1, 2-(1-(4-((1-(5-Chloro-2-methoxypyridin-4-yl)-3-methylpiperidin-4-yl)oxy)phenyl)-4-ethyl-3-(trifluoromethyl)-4,5-dihydro-1H-pyrazol-5-yl)acetic acid] |
| 237 nM | COc1cc(F)c(F)c(N2CCC(Oc3ccc(N4N=C(C(F)(F)F)[C@@H](C)[C@@H]4CC(=O)O)cc3)C(C)C2)c1 (single isomer, unassigned) [Example 8 (Isomer 2)] |
| 512 nM | C[C@@H]1C(C(F)(F)F)=NN(c2ccc(OC3CCN(c4cc(Cl)ccc4F)CC3)cc2)[C@H]1CC(=O)O [Example 64, 2-((4S,5S)-1-(4-((1-(5-Chloro-2-fluorophenyl)piperidin-4-yl)oxy)phenyl)-4-methyl-3-(trifluoromethyl)-4,5-dihydro-1H-pyrazol-5-yl)acetic acid] |
| 448 nM | C[C@@H]1C(C(F)(F)F)=NN(c2ccc(OC3CCN(c4ccccc4Cl)CC3)cc2)[C@H]1CC(=O)O [Example 37, 2-((4S,5S)-1-(4-((1-(2-Chlorophenyl)piperidin-4-yl)oxy)phenyl)-4-methyl-3-(trifluoromethyl)-4,5-dihydro-1H-pyrazol-5-yl)acetic acid] |
